This data set can be described thus: In vivo determination of metabolites in urine and feces (HRMS). Also on record: species or system athymic nude mice. The procedure: To elucidate the in vivo activation mechanism of the H2O2-responsive prodrugs 10a and 10b, we investigated their metabolic fate in a xenograft mouse model. MDA-MB-468 tumor-bearing athymic nude mice received an intraperitoneal injection of a 1:1 mixture of 10a (nondeuterated, d 0) and 10b (deuterated, d 5) at equimolar doses (15 mg/kg each; total dose: 30 mg/kg). […] These end-products are consistent with a pathway initiated by H2O2-triggered oxidative deboronation of the boronic acid moiety in 10a/10b to yield phenol intermediates 11a/11b, which can undergo either hydrolysis to alcohols 12a/12b followed by N-demethylation, or direct N-demethylation to 13a/13b (Scheme ). The resulting 13a/13b serve as substrates for UDP-glucuronosyltransferase (UGT)-catalyzed conjugation with uridine diphosphate glucuronic acid, ultimately forming glucuronide conjugates 14a and 14b (Figure and Scheme ). Although intermediates 11a,b-13a,b were not detected in vivo, likely due to their rapid turnover and concentrations below the sensitivity of our LC–MS method, the proposed sequence is strongly supported by complementary cell-culture metabolism studies in which two key intermediates (11a,b and 12a,b) were observed (Figures S8 and S9). Detection of both isotopically labeled and unlabeled metabolites therefore provides robust evidence for H2O2-mediated oxidative deboronation in vivo, with the in vitro findings offering additional mechanistic confirmation.
Eight-week-old female athymic nude mice (immunodeficient) were anesthetized with isoflurane and subcutaneously inoculated in the flank with 7.5 × 10^6 MDA-MB-468 cells in 100 μL of a 1:1 mixture of Matrigel and Dulbecco’s Modified Eagle Medium (DMEM). Cells were sourced from the American Type Culture Collection (ATCC) and certified free of bloodborne pathogens. Mice were monitored daily for tumor development and weighed weekly. Upon establishment of palpable xenografts (typically one-week postinoculation), animals were randomized into treatment (n = 3) and control (n = 3) groups. For metabolite profiling, mice were individually housed in Labsand-lined cages (Labsand purchased from BrainTree Scientific, inc.). The treatment group received an IP injection of a 1:1 mixture of compounds 10a (d 0) and 10b (d 5) (100 μL) at a combined dose of […], formulated in DMSO/PBS (1×):PEG400 at a ratio of 2:19:19. The control group received the corresponding vehicle (PBS/PEG400/DMSO, 19:19:2). Food and water were provided ad libitum. Urine and Feces were collected separately at two intervals: 0–24 h and 24–48 h. All collected samples were subsequently stored in −80 °C.
Fecal samples (0.4 g) were thawed on ice from −80 °C. The feces were mixed and homogenized with a pestle in 10 mL centrifuge tube with LCMS grade MeOH (2 mL), then centrifuged for 5 min at 10,000g. The supernatant was transferred to a separate 2 mL centrifuge tube and dried. The resulting feces were subjected to SPE C-18 (Supelco Discovery DSC-18Lt SPE Tube) by initially using 5 mL 18 LCMS grade water and subsequently eluted with LCMS grade MeOH. The organic eluant was collected and dried. The resulting feces mixture was filtered by size exclusion (Amicon Ultra Centrifugal Filter, 3 kDa MWCO). Then the solution was transferred to a sample vial with 300 μL insert and analyzed by Shimadzu HRMS 9030 Q-TOF. Urine samples were thawed on ice from −80 °C, vortexed for 5 s and blended in aliquots of 20 μL MeCN. The samples were vortexed for 15 s and centrifuged for 10 min at 10,000g. The supernatant was transferred to a clean microcentrifuge tube and diluted 10× with 80:20 H2O/MeCN. The resulting solution was filtered by size exclusion (Amicon Ultra Centrifugal Filter, 3 kDa MWCO) at 11k × g.
3. In vivo determination of metabolites from Xenograft models
Table S1. In vivo metabolites of 10a and 10b and HPLC retention time (Rt).a
0 – 24 h (R t/min) 24 – 48 h (R t/min)
Phase II metabolite urine feces urine feces
glucoside <LOD <LOD <LOD <LOD […]

[1] abbreviates: urine 0–24 h after IP 1:1 mixture of 10a and 10b, total dose 30 mg/kg, HRMS.

The record followed here is paper PMC12703749, “H2O2–Responsive Anticancer Prodrug: Synthesis, Precision Deuteration in Search of In Vivo Metabolites, and Activation Pathway” (Journal of Medicinal Chemistry, 2025).

Some results are limits rather than exact numbers.

Consider `[2H]C([2H])([2H])C([2H])([2H])c1cc(N)ccc1OC1OC(C(=O)O)C(O)C(O)C1O` (centres unmarked) [Compound 14b], for which the “phase II metabolite in feces” value by setting is: (feces 0–24 h, Table S1) “< LOD”; (feces 24–48 h, Table S1) “< LOD”. In addition, the “phase II metabolite in urine” value reads like this: under setting [1], “presence”; (urine 24–48 h, Table S1) “< LOD”.

In the case of `CCc1cc(N)ccc1OC1OC(C(=O)O)C(O)C(O)C1O` (centres unmarked) [Compound 14a], the “phase II metabolite in feces” value (feces 0–24 h, Table S1) is “< LOD” and the “phase II metabolite in feces” value (feces 24–48 h, Table S1) was “< LOD”. In addition, the “phase II metabolite in urine” value reads like this: under setting [1], “presence”; (urine 24–48 h, Table S1) “< LOD”.
